The values below come from patent US4145444A, “Anti-inflammatory agent of benzoyl derivative” (priority 1977, dated 1979).

Usually inhibition stands for the relative decrease from the control value, in per cent.

In the first assay the test system is platelet. Kind of assay: Blood platelet aggregation inhibiting effect (collagen-induced). It is filed as cell-based, rabbits. Conditions: 10^-4 mole, collagen inducer, rabbit PRP. An excerpt: Male rabbits (Japan original white strain 3.3 to 3.6 kg) were anesthetized with Thiopental sodium and blood was sampled from the carotid artery.
Consider `CCCCCCc1ccc(C(=O)c2ccc(C)cc2C)cc1` [Active ingredient No. 4], for which the “Blood platelet agg. inh.: percentage inhibition of platelet aggregation” value was 20.5%.
The same measure, in the same setting: the same measure for `Cc1cc(C)c(C(=O)c2ccccc2)c(C)c1` [compound 30]: 8.7%; for `O=C(c1ccccc1)c1ccc(C2CCCCC2)cc1` [compound 73]: 20.3%.

The same assay, now with this note: Oryctolagus cuniculus, Platelet, read-out: Blood platelet agg. inh.: percentage inhibition of platelet aggregation.
`COc1ccc(C(=O)C(=O)c2ccccc2)cc1`: the inhibition at 100 µM stood at 20.1%.

The same assay, now with this note: Oryctolagus cuniculus, Platelet; 10^-4 mole, collagen inducer, rabbit PRP; read-out: Blood platelet agg. inh.: percentage inhibition of platelet aggregation.
Consider `CCCc1ccc(C(=O)c2ccccc2F)cc1` [compound 7], for which the inhibition at 100 µM was found to be 23%.
For `CCCCc1ccc(C(=O)c2ccccc2F)cc1` [compound 8], the inhibition at 100 µM is 24%.
On the same count and under the same terms, the same measure for `CCCCCc1ccc(C(=O)c2ccccc2F)cc1` [compound 9]: 14.6%; for `Cc1ccc(C(=O)c2ccccc2F)c(C)c1` [compound 10]: 18.5%; for `Cc1cc(C)c(C(=O)c2ccccc2F)c(C)c1` [compound 11]: 16.5%.

The subject of a further assay is hind paws of male rats. Description: Anti-inflammatory effect: acute carragheenin edema method. Format: in vivo. As to conditions: Rattus norvegicus, po, read-out: Anti-inf.: edema inhibition rate. On the procedure: The edema was induced by subcutaneous injection of 1% carragheenin suspension in saline to the hind paws of male rats weighting 150 to 180 g. Each sample was orally given at the dosage of 100 mg/kg just before the inoculation of carragheenin.
`COc1ccc(C(=O)C(=O)c2ccccc2)cc1`: the inhibition in vivo at 100 mg/kg came to 43.9%.
On the same count and under the same terms, then `CCCCCCCCc1ccc(C(=O)c2cccc(I)c2)cc1` [compound 161], with 20.9%.

The same assay, now with this note: Rattus norvegicus; 100 mg/kg oral, carragheenin edema, male rats (Table 2'); read-out: Anti-inf.: edema inhibition rate.
With `COc1ccc(C(=O)c2ccccc2F)cc1` [compound 116], the inhibition in vivo at 100 mg/kg came out at 59.8%.
The same measure, in the same setting: then `CC(C)c1ccc(C(=O)c2ccccc2F)cc1` [compound 117], with 53.3%; and `CC(C)Cc1ccc(C(=O)c2ccccc2F)cc1` [compound 118], with 32.7%; and `CCC(C)c1ccc(C(=O)c2ccccc2F)cc1` (centres unmarked) [compound 119], with 60.7%.
Same read-out and setting: the same measure for `CC(C)(C)c1ccc(C(=O)c2ccccc2F)cc1` [compound 120]: 38.3%; for `CCC(C)(C)c1ccc(C(=O)c2ccccc2F)cc1` [compound 122]: 39.3%.
Same read-out and setting: the same measure for `CCCCc1ccc(C(=O)c2cccc(F)c2)cc1` [compound 123]: 38.3%.
With `CCCCCc1ccc(C(=O)c2cccc(F)c2)cc1` [compound 124], the inhibition in vivo at 100 mg/kg came to 23.5%.
As for `Cc1cc(C)c(C(=O)c2cccc(F)c2)c(C)c1` [compound 125], the inhibition in vivo at 100 mg/kg was 18.1%.
The same measure, in the same setting: the same measure for `Cc1ccc(C(=O)c2cccc(F)c2)c(C)c1` [compound 126]: 27.7%.
The same measure, in the same setting: the same measure for `CCCCc1ccc(C(=O)c2ccc(F)cc2)cc1` [compound 127]: 58.8%.
As for `CCCCCc1ccc(C(=O)c2ccc(F)cc2)cc1` [compound 128], the inhibition in vivo at 100 mg/kg was 33.6%.
Still for that read-out and setting: the same measure for `CCCCCCCCc1ccc(C(=O)c2ccc(F)cc2)cc1` [compound 129]: 38.6%.
Turning to `Cc1ccc(C(=O)c2ccc(F)cc2)c(C)c1` [compound 130], the inhibition in vivo at 100 mg/kg amounted to 37.8%.
With `Cc1cc(C)c(C(=O)c2ccc(F)cc2)c(C)c1` [compound 131], the inhibition in vivo at 100 mg/kg was 33.6%.
For `CCCc1ccc(C(=O)c2ccccc2Cl)cc1` [compound 132], the inhibition in vivo at 100 mg/kg worked out at 14.9%.
Still for that read-out and setting: then `CCCCCc1ccc(C(=O)c2ccccc2Cl)cc1` [compound 133], with 38.3%; and `CCCCCCCCc1ccc(C(=O)c2ccccc2Cl)cc1` [compound 134], with 35.1%; and `Cc1ccc(C(=O)c2ccccc2Cl)c(C)c1` [compound 135], with 37.2%.
In the case of `COc1ccc(C(=O)c2ccc(Cl)cc2)cc1` [compound 136], the inhibition in vivo at 100 mg/kg came out at 13.2%.
For `CCCCOc1ccc(C(=O)c2ccc(Cl)cc2)cc1` [compound 137], the inhibition in vivo at 100 mg/kg worked out at 16.7%.
Same read-out and setting: then `CCCCCCOc1ccc(C(=O)c2ccc(Cl)cc2)cc1` [compound 138], with 12.5%.
For the compound `CCCc1ccc(C(=O)c2cccc(Cl)c2)cc1` [compound 139], the inhibition in vivo at 100 mg/kg turned out to be 11.7%.
With `CCCCCc1ccc(C(=O)c2cccc(Cl)c2)cc1` [compound 140], the inhibition in vivo at 100 mg/kg was 14.9%.
Regarding `CCCCCCCCc1ccc(C(=O)c2cccc(Cl)c2)cc1` [compound 141], the inhibition in vivo at 100 mg/kg stood at 13.8%.
The same measure, in the same setting: then `CCCc1ccc(C(=O)c2ccccc2Br)cc1` [compound 142], with 38.9%; and `CCCCc1ccc(C(=O)c2ccccc2Br)cc1` [compound 143], with 45.4%.
Turning to `CCCCCc1ccc(C(=O)c2ccccc2Br)cc1` [compound 144], the inhibition in vivo at 100 mg/kg was 50%.
For `CCCCCCCCc1ccc(C(=O)c2ccccc2Br)cc1` [compound 145], the inhibition in vivo at 100 mg/kg was 60.2%.
On the same count and under the same terms, then `Cc1ccc(C(=O)c2ccccc2Br)c(C)c1` [compound 146], with 23.1%; and `Cc1cc(C)c(C(=O)c2ccccc2Br)c(C)c1` [compound 147], with 20.4%.
On the same count and under the same terms, the same measure for `CCCCCCCCc1ccc(C(=O)c2cccc(Br)c2)cc1` [compound 148]: 36.3%.
The same measure, in the same setting: the same measure for `Cc1ccc(C(=O)c2cccc(Br)c2)c(C)c1` [compound 149]: 42.2%; for `CCCc1ccc(C(=O)c2ccc(Br)cc2)cc1` [compound 150]: 14%; for `CCCCCCCCc1ccc(C(=O)c2ccc(Br)cc2)cc1` [compound 151]: 15.3%.
For `Cc1ccc(C(=O)c2ccc(Br)cc2)c(C)c1` [compound 152], the inhibition in vivo at 100 mg/kg was determined as 22.6%.
On the same count and under the same terms, then `Cc1cc(C)c(C(=O)c2ccc(Br)cc2)c(C)c1` [compound 153], with 27.8%.
The same measure, in the same setting: the same measure for `CCCc1ccc(C(=O)c2ccccc2I)cc1` [compound 154]: 29%; for `CCCCc1ccc(C(=O)c2ccccc2I)cc1` [compound 155]: 31.8%.
Regarding `CCCCCc1ccc(C(=O)c2ccccc2I)cc1` [compound 156], the inhibition in vivo at 100 mg/kg was determined as 43%.
`CCCCCCCCc1ccc(C(=O)c2ccccc2I)cc1` [compound 157]: the inhibition in vivo at 100 mg/kg amounted to 37.4%.
The same measure, in the same setting: the same measure for `Cc1ccc(C(=O)c2ccccc2I)c(C)c1` [compound 158]: 32.7%; for `Cc1cc(C)c(C(=O)c2ccccc2I)c(C)c1` [compound 159]: 15.9%; for `CCCCc1ccc(C(=O)c2cccc(I)c2)cc1` [compound 160]: 10.8%.
Take `Cc1ccc(C(=O)c2cccc(I)c2)c(C)c1` [compound 162]: the inhibition in vivo at 100 mg/kg turned out to be 13%.
On the same count and under the same terms, then `Cc1cc(C)c(C(=O)c2cccc(I)c2)c(C)c1` [compound 163], with 16.4%.
For `CCCCCCCCc1ccc(C(=O)c2ccc(I)cc2)cc1` [compound 164], the inhibition in vivo at 100 mg/kg is 29%.
Same read-out and setting: the same measure for `Cc1ccc(C(=O)c2ccc(I)cc2)c(C)c1` [compound 165]: 19.2%.
On the same count and under the same terms, the same measure for `Cc1cc(C)c(C(=O)c2ccc(I)cc2)c(C)c1` [compound 166]: 21.5%.

Staying with this assay, now noted: Rattus norvegicus; 100 mg/kg oral, carragheenin edema, male rats (Table 2); read-out: Anti-inf.: edema inhibition rate.
Take `CCCc1ccc(C(=O)c2ccccc2F)cc1` [compound 7]: the inhibition in vivo at 100 mg/kg amounted to 55.6%.
The same measure, in the same setting: then `CCCCc1ccc(C(=O)c2ccccc2F)cc1` [compound 8], with 82.6%; and `CCCCCc1ccc(C(=O)c2ccccc2F)cc1` [compound 9], with 74.6%; and `Cc1ccc(C(=O)c2ccccc2F)c(C)c1` [compound 10], with 47.5%.
Still for that read-out and setting: the same measure for `Cc1cc(C)c(C(=O)c2ccccc2F)c(C)c1` [compound 11]: 62.3%.

The same assay, now with this note: rat, in vivo.
Regarding `CCCCCc1ccc(C(=O)c2ccccc2F)cc1` [Active ingredient No. 9, 2-Fluoro-4'-n-amyl-benzophenone], the “anti-inflammatory effect, inhibition rate (ED50), in words” value is recorded as “especially high inhibition rate (ED50)”.
Regarding `Cc1cc(C)c(C(=O)c2ccccc2F)c(C)c1` [Active ingredient No. 11, 2-Fluoro-2',4',6'-trimethyl-benzophenone], the “anti-inflammatory effect, inhibition rate (ED50), in words” value was “especially high inhibition rate (ED50)”.
The same measure, in the same setting: then `O=C(c1ccccc1)c1ccccc1F` [Active ingredient No. 15, 2-fluorobenzophenone], with “especially high inhibition rate (ED50)”.

The subject of a further assay is male mice. Kind of assay: Analgesic effect: painful stretchings following intraperitoneal 0.7% acetic acid. Conditions: Mus musculus, po, read-out: Analgesic: percentage diminition of times of painful stretching.
Protocol: Each sample was orally administered in the dosage of 100 mg/kg before injection of acetic acid.
Consider `COc1ccc(C(=O)C(=O)c2ccccc2)cc1`, for which the inhibition in vivo at 100 mg/kg is 10.2%.
Still for that read-out and setting: the same measure for `CCCc1ccc(C(=O)c2ccccc2F)cc1` [compound 7]: 15%.
Still for that read-out and setting: the same measure for `CCCCc1ccc(C(=O)c2ccccc2F)cc1` [compound 8]: 14.8%; for `CCCCCc1ccc(C(=O)c2ccccc2F)cc1` [compound 9]: 15.3%.
On to `Cc1ccc(C(=O)c2ccccc2F)c(C)c1` [compound 10], for which the inhibition in vivo at 100 mg/kg is 20.3%.
Same read-out and setting: the same measure for `Cc1cc(C)c(C(=O)c2ccccc2F)c(C)c1` [compound 11]: 13.9%.

In the next assay the test system is thrombus. Description: Inhibiting effect on thrombosis (by-pass between left juglar vein and right carotid artery, silk thread). It is filed as in vivo, SD type male rates. Conditions: Rattus norvegicus, po, 5 h, read-out: Thrombosis inh.: thrombosis inhibition rate. On the procedure: The inhibiting effects of the samples of the invention on thrombosis were tested by the following test method.
A 0.5 ml of 50 μ/ml of the heparin physiological saline was added through the polyethylene tube before the first blood circulation. After the blood circulation for 15 minutes, the circulation was stopped in the middle of the tubing at artery side with a pinch cock.
Then, 0.2 ml of the heparin physiological saline was added to remove the blood coagulates on the tubing wall and another new polyethylene tubing filled with the heparin solution and containing a piece of new silk thread was attached between the venous and artery tubing ends.
The blood circulation was reestablished by opening the pinch cock. After 15 minutes, the wet weight of thrombus on the silk thread was similarly measured.
In the same manner, the third circulation was performed and wet weight of thrombus measured.
The amount of thrombus was given by the equation A. [formula] Each sample was suspended in an aqueous solution of sodium carboxymethyl cellulose and the oral dose of the suspension (100 mg/kg) was performed at 5 hours before the first blood circulation.
The amount of thrombus after the oral dose of the sample was calculated in the same manner as that of control circulations.
The thrombosis inhibition rate was given by the equation B. [formula]
`COc1ccc(C(=O)C(=O)c2ccccc2)cc1`: the inhibition in vivo at 100 mg/kg was 18.3%.

Still in this assay, the particulars now being: Rattus norvegicus; 100 mg/kg oral, 5 hours before first blood circulation, rats; read-out: Thrombosis inh.: thrombosis inhibition rate.
Take `CCCc1ccc(C(=O)c2ccccc2F)cc1` [compound 7]: the inhibition in vivo at 100 mg/kg was 24.6%.
Still for that read-out and setting: the same measure for `CCCCc1ccc(C(=O)c2ccccc2F)cc1` [compound 8]: 38%; for `CCCCCc1ccc(C(=O)c2ccccc2F)cc1` [compound 9]: 25.3%.
As to `Cc1ccc(C(=O)c2ccccc2F)c(C)c1` [compound 10], the inhibition in vivo at 100 mg/kg came to 29.7%.
Same read-out and setting: then `Cc1cc(C)c(C(=O)c2ccccc2F)c(C)c1` [compound 11], with 42.9%.
